The record followed here is ChEMBL document CHEMBL4765318 (Eur J Med Chem, 2020).

Assay [1] has as its target T1, Tyrosine-protein kinase BTK (Homo sapiens, UniProt Q06187). The following applies: dose 100.0 nM.
Description: Inhibition of BTK (unknown origin) at 100 nM by ADP-Glo assay relative to control
The test system of assay [2] is Ramos. Briefly: Antiproliferative activity against human Ramos cells assessed as reduction in cell viability incubated for 24 hrs by CCK-8 assay. In kind it is functional, cell-based. On the technique in general: Tetrazolium assays rely on reduction of a dye to a coloured formazan, in cell work by metabolically active cells.
The next assay has as its system Raji. Briefly: Antiproliferative activity against human Raji cells assessed as reduction in cell viability incubated for 24 hrs by CCK-8 assay. The assay is classed as functional, cell-based.
Assay [3] addresses T1, Tyrosine-protein kinase BTK. Briefly: Inhibition of BTK (unknown origin) by ADP-Glo assay. On the technique in general: ADP-Glo turns the ADP formed in a reaction into a luminescent signal.
Assay [4] relates to Ramos. Briefly: Induction of apoptosis in human Ramos cells assessed as late apoptotic cells at 5 uM incubated for 24 hrs by annexin V-FITC and PI staining based flow cytometry analysis (reference value: 2.2 %). In kind it is functional.
Assay [5] deals with Ramos. Briefly: Induction of cell cycle arrest in human Ramos cells assessed as S phase accumulation at 5 uM incubated for 24 hrs by PI staining based flow cytometry analysis (reference value: 37.38 %). The assay is classed as functional. Background: Flow cytometry measures light scatter and fluorescence of single cells or particles in a stream.
Assay [6] deals with Ramos. Briefly: Induction of cell cycle arrest in human Ramos cells assessed as G2/M phase accumulation at 5 uM incubated for 24 hrs by PI staining based flow cytometry analysis (reference value: 20.96 %). In kind it is functional.
In assay [7] the test system is Ramos. Briefly: Induction of apoptosis in human Ramos cells assessed as viable cells at 5 uM incubated for 24 hrs by annexin V-FITC and PI staining based flow cytometry analysis (reference value: 93.8 %). In kind it is functional.
The test system of assay [8] is Ramos. Briefly: Induction of apoptosis in human Ramos cells assessed as early apoptotic cells at 5 uM incubated for 24 hrs by annexin V-FITC and PI staining based flow cytometry analysis (reference value: 1.9 %). In kind it is functional.
For assay [9], the system named is Ramos. Briefly: Induction of cell cycle arrest in human Ramos cells assessed as G0/G1 phase accumulation at 5 uM incubated for 24 hrs by PI staining based flow cytometry analysis (reference value: 39.13 %). The assay is classed as functional.
The subject of assay [10] is Ramos. Briefly: Induction of apoptosis in human Ramos cells assessed as necrotic cells at 5 uM incubated for 24 hrs by annexin V-FITC and PI staining based flow cytometry analysis (reference value: 2.1 %). The assay is classed as functional.
Assay [11] has as its system Ramos. Briefly: Induction of cell cycle arrest in human Ramos cells assessed as subG1 phase accumulation at 5 uM incubated for 24 hrs by PI staining based flow cytometry analysis (reference value: 2.53 %). The assay is classed as functional.
The target in assay [12] is T1, Tyrosine-protein kinase BTK. Briefly: Inhibition of BTK in human Ramos cells assessed as reduction in PLCgamma2 phosphorylation at Tyr557 residue at 3 uM incubated for 24 hrs by Western blot analysis. In kind it is cell-based.
Assay [13] has the same target. Briefly: Inhibition of BTK in human TMD8 cells assessed as reduction in cell proliferation incubated for 24 hrs by CCK-8 assay. The assay is classed as cell-based.
Assay [14] concerns the target Proto-oncogene tyrosine-protein kinase Src (Homo sapiens, UniProt P12931). Briefly: Inhibition of SRC (unknown origin) by ADP-Glo assay.
Assay [15] deals with Epidermal growth factor receptor (Homo sapiens, UniProt P00533). Briefly: Inhibition of EGFR (unknown origin) by ADP-Glo assay.
Assay [16] deals with T1, Tyrosine-protein kinase BTK. Briefly: Inhibition of BTK in human Ramos cells assessed as reduction in BTK phosphorylation at Tyr223 residue at 10 uM incubated for 4 hrs by Western blot analysis relative to control. In kind it is cell-based.
Assay [17] shares this target. Briefly: Inhibition of BTK in human Ramos cells assessed as reduction in BTK phosphorylation at Tyr223 residue at 10 uM incubated for 24 hrs by Western blot analysis. In kind it is cell-based.
Assay [18] addresses Tyrosine-protein kinase Blk (Homo sapiens, UniProt P51451). Briefly: Inhibition of BLK (unknown origin) by ADP-Glo assay.
The target of assay [19] is T1, Tyrosine-protein kinase BTK. Briefly: Inhibition of BTK in human Ramos cells assessed as reduction in BTK phosphorylation at Tyr223 residue at 10 uM incubated for 4 hrs followed by compound wash-out and measured upto 24 hrs by Western blot analysis. In kind it is cell-based.
Assay [20] addresses T2, Tyrosine-protein kinase ITK/TSK (Homo sapiens, UniProt Q08881).
T2 sequence (Q08881 whole entry): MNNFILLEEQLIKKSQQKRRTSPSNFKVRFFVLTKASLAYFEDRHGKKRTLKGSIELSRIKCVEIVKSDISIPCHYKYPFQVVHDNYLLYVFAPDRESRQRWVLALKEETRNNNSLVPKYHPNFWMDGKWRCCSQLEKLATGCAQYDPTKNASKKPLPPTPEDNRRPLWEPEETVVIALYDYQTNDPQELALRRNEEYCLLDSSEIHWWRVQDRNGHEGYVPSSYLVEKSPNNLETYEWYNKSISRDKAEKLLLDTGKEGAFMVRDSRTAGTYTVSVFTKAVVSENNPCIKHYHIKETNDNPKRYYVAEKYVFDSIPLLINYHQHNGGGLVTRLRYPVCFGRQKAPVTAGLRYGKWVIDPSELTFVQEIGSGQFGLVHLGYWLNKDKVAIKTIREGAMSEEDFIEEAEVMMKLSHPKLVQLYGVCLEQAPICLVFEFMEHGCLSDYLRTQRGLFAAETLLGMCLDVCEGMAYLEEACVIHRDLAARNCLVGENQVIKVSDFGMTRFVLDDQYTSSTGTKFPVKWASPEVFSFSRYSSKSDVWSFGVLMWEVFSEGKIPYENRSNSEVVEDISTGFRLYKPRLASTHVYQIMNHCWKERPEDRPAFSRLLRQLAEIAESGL
Briefly: Inhibition of ITK (unknown origin) by ADP-Glo assay.

Molecules are shown by their SMILES. The source made the active and inactive calls. The calls are words filed in the database; no cut-off is given here.

T1 sequence (Q06187 whole entry): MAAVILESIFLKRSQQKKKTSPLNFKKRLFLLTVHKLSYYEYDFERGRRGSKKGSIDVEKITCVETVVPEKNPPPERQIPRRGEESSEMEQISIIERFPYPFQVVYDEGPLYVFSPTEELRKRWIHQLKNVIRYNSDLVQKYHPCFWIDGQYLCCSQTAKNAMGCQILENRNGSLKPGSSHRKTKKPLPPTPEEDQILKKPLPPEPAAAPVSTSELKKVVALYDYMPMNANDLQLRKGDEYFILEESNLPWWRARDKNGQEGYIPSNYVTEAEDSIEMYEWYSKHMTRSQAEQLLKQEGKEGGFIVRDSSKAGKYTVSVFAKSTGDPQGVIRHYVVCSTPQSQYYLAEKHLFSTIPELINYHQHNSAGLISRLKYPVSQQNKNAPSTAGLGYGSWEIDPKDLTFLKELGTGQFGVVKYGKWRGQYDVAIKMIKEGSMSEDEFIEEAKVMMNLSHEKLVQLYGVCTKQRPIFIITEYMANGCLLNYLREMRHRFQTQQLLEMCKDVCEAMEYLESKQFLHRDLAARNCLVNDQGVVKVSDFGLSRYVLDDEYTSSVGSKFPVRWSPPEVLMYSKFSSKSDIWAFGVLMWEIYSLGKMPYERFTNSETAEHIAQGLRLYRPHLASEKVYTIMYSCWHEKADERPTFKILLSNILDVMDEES
Sequence of Epidermal growth factor receptor (P00533 whole entry): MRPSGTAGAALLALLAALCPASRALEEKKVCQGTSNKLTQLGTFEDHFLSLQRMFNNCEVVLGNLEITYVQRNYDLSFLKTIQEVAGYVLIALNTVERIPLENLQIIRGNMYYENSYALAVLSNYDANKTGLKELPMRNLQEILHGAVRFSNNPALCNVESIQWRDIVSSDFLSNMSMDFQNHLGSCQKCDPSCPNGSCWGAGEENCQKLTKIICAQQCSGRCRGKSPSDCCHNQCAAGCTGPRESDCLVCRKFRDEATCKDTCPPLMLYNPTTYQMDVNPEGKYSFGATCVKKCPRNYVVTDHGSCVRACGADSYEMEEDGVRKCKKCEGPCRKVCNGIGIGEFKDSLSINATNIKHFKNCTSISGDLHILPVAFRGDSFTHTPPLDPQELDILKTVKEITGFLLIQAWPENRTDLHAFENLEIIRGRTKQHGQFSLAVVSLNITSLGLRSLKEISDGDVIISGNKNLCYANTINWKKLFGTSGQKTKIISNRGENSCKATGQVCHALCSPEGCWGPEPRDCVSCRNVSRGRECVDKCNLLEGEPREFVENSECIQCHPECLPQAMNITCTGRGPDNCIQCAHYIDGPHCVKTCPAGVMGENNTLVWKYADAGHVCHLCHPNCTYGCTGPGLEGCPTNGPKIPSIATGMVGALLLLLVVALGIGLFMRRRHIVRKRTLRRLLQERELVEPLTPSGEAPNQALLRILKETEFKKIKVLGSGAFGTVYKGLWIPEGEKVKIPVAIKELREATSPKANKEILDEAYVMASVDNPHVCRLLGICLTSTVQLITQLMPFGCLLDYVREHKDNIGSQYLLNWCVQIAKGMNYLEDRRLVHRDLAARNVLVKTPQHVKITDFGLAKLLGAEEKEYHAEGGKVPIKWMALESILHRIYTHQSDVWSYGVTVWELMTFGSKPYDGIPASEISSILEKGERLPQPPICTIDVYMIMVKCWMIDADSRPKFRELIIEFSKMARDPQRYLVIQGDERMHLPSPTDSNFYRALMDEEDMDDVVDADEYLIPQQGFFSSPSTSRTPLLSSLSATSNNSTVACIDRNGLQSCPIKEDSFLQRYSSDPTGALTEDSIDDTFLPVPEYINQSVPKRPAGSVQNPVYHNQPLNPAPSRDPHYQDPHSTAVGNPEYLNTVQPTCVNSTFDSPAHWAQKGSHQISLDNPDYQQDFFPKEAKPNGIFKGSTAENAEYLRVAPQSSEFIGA
Sequence of Tyrosine-protein kinase Blk (P51451 whole entry): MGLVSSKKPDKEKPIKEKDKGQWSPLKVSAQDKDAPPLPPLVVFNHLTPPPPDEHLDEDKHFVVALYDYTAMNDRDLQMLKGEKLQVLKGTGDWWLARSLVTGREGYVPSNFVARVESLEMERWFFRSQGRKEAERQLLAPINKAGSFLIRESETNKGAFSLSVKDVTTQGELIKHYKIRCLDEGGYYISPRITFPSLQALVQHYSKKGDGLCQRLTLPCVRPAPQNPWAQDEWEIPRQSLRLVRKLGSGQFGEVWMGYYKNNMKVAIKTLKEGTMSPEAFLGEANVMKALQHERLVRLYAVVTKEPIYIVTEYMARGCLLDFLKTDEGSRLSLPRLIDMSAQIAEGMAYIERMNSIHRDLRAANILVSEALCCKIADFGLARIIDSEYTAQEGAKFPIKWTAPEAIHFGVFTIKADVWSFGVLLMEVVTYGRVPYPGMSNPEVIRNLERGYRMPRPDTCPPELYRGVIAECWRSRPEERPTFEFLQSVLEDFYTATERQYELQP
Sequence of Proto-oncogene tyrosine-protein kinase Src (P12931 2-536 limits assumed): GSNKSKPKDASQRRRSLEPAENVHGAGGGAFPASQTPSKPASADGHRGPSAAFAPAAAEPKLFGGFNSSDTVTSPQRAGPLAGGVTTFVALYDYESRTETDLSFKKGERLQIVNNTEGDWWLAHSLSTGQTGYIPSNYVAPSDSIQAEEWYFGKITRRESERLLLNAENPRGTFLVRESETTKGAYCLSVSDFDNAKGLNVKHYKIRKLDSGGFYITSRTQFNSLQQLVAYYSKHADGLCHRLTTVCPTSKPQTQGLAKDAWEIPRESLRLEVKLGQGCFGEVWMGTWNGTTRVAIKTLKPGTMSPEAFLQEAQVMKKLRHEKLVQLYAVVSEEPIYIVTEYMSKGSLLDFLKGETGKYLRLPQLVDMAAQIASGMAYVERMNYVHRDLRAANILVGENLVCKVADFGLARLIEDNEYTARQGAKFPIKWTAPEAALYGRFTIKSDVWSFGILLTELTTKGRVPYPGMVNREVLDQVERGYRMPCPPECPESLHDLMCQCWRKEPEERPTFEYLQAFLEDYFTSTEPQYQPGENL

`C=CC(=O)Nc1cccc(Nc2ncnc(Nc3ccc(C(=O)Nc4ccc(C)cn4)cc3)n2)c1` returned an inhibition in assay [1] of 41.6%. The IC50 with Ramos [2] is over 100 µM; in the assay with Raji, 125 µM.

`C=CC(=O)Nc1cccc(Nc2ncnc(Nc3ccc(-c4ccc(OC)nc4)cc3)n2)c1` registered an inhibition in assay [1] of 32.7%.

On to `C=CC(=O)Nc1cccc(Nc2nc(Cl)nc(Nc3ccc(Oc4ccccc4)cc3)n2)c1`, for which the inhibition in assay [1] was 7.3%. Besides, the IC50 turned out to be 12.3 µM in the assay on Ramos [2] and 15.7 µM in the assay with Raji.

On to `C=CC(=O)Nc1cccc(Nc2ncnc(Nc3ccc(Oc4ccc(OC)cc4)cc3)n2)c1`, for which the inhibition in [1] was found to be 23.4%. Also, the IC50 with Ramos [2] is over 100 µM.

Consider `C=CC(=O)Nc1cccc(Nc2nc(Cl)nc(Nc3ccc(OCCOC)cc3)n2)c1`, for which, in assay [1], the inhibition was 10%.

For `C/C=C/C(=O)Nc1cccc(Nc2ncnc(Nc3ccc(C(=O)N4CCCCC4)cc3)n2)c1`, the inhibition in assay [1] amounted to 4.8%. Also, the half-maximal inhibitory concentration (IC50) in assay [3] is over 1 µM; in the assay with Ramos [2], 13.2 µM; in the assay on Raji it was 13.8 µM.

For the compound `C=CC(=O)N1CCC[C@@H](n2nc(-c3ccc(Oc4ccccc4)cc3)c3c(N)ncnc32)C1` [IBRUTINIB], the Activity in the assay with Ramos [4] worked out at 12.5%; with Ramos [5] it was 29.22%; with Ramos [6], 26.95%; with Ramos [7], 82.1%; with Ramos [8], 1.9%; in the assay on Ramos [9], 28.72%. Further, the Activity worked out at 3.5% in the assay with Ramos [10] and 15.11% in the assay on Ramos [11]. Besides, the half-maximal inhibitory concentration (IC50) amounted to 1.35 µM in the assay with Ramos [2] and 12.6 µM with Raji.

In assay [1], `C=CC(=O)Nc1cc(Nc2ncnc(Nc3ccc(C(=O)N4CCCCC4)cc3)n2)ccc1C` returned an inhibition of 39.1%. Besides, the 50% inhibitory concentration (IC50) in assay [3] was determined as 0.146 µM; in the assay on Ramos [2], 48.5 µM; with Raji, 30.6 µM.

As to `C=CC(=O)Nc1cccc(Nc2ncnc(Nc3ccc(C(=O)N4CCCCC4)cc3)n2)c1`, the Activity in the assay on Ramos [4] worked out at 10.8%; with Ramos [5], 35.2%; in the assay on Ramos [6], 25.14%; with Ramos [8] it was 2.1%; in the assay on Ramos [9], 29.23%; in the assay with Ramos [10] it was 2.4%. Also, in the assay on Ramos [11], the Activity is listed as 10.43%. The inhibition in assay [1] is 91.1%; in [13], “Dose-dependent effect”; in assay [16], 100%. For the same compound, the inhibition entry in assay [12], in assay [17] and in assay [19] was “Active” each time. In addition, the IC50 was determined as 0.524 µM in assay [14]; 0.031 µM in [15]; 0.021 µM in assay [3]; 0.594 µM in assay [18]; 6.14 µM in the assay on Ramos [2]; 2.62 µM in assay [20]. Moreover, the IC50 with Raji stood at 5.14 µM. Also, the viability at 5 µM in the assay on Ramos [7] (Homo sapiens, Ramos, read-out: Activity) was 84.7%.

Regarding `C=CC(=O)Nc1cccc(Nc2nc(N)nc(Nc3ccc(OCCOC)cc3)n2)c1`, the inhibition in assay [1] was determined as 27.7%. Besides, the 50% inhibitory concentration (IC50) in the assay with Ramos [2] is 18.9 µM; with Raji it was 18.3 µM.

Compound `C=CC(=O)Nc1cccc(Nc2ncnc(Nc3ccc(-c4ccc(F)nc4)cc3)n2)c1` registered an inhibition in [1] of 46.8%. Besides, the half-maximal inhibitory concentration (IC50) with Ramos [2] was 59.2 µM; in the assay with Raji, 3.25 µM.

For `C=CC(=O)Nc1cccc(Nc2nc(N)nc(Nc3ccc(Oc4ccccc4)cc3)n2)c1`, in assay [1], the inhibition came to 17.1%. Moreover, the concentration for half-maximal inhibition (IC50) with Ramos [2] stood at 20 µM; in the assay with Raji, 8.32 µM.

For the compound `C=CC(=O)Nc1cccc(Nc2ncnc(Nc3ccc(C(=O)N4CCOCC4)cc3)n2)c1`, in assay [1], the inhibition was determined as 77.5%. Also, the IC50 was found to be 13.2 µM in the assay with Ramos [2] and 22.2 µM in the assay with Raji.

Regarding `CC#CC(=O)Nc1cccc(Nc2ncnc(Nc3ccc(C(=O)N4CCCCC4)cc3)n2)c1`, the inhibition in assay [1] is 8.9%. The IC50 was over 1 µM in assay [3], 24.4 µM in the assay with Ramos [2] and 4.62 µM in the assay with Raji.

With `C=CC(=O)Nc1cccc(Nc2ncnc(Nc3ccc(OCCOC)cc3)n2)c1`, the inhibition in [1] is 57.1%. For the same compound, the concentration for half-maximal inhibition (IC50) came out at 181 µM in the assay on Ramos [2] and 105 µM in the assay on Raji.

As to `C=CC(=O)Nc1cccc(Nc2ncnc(Nc3ccc(C(=O)Nc4ccccn4)cc3)n2)c1`, the inhibition in assay [1] worked out at 56.3%. Further, in the assay with Raji, the IC50 was found to be 15.6 µM.

On to `C=CC(=O)Nc1cccc(Nc2ncnc(Nc3ccc(-c4cccnc4)cc3)n2)c1`, for which the inhibition in assay [1] worked out at 66.6%. For the same compound, the IC50 with Ramos [2] was over 100 µM; in the assay with Raji it was 12.4 µM.

In assay [1], `C=CC(=O)N1CCc2ccc(Nc3ncnc(Nc4ccc(C(=O)N5CCCCC5)cc4)n3)cc21` returned an inhibition of 75.8%. Moreover, the concentration for half-maximal inhibition (IC50) in assay [3] was 0.0543 µM; in the assay with Raji, 2.84 µM.

`C=CC(=O)Nc1cccc(Nc2ncnc(Nc3ccc(-c4ccc(C)nc4)cc3)n2)c1` gave an inhibition in assay [1] of 55.7%. Further, the IC50 in the assay with Raji is 13.8 µM.

In assay [1], `C=CC(=O)Nc1cccc(Nc2ncnc(Nc3ccc(-c4ccc(Cl)nc4)cc3)n2)c1` showed an inhibition of 36.7%. For the same compound, the IC50 in the assay on Ramos [2] was found to be 160 µM.

By inhibition is commonly meant the share of the control response that was lost under treatment. As a reminder, the IC50 is the concentration needed to halve the response being measured.
